# Values quoted from earlier work in patent US20240358668A1, “METHODS AND CO[…] AM[…] CARD[…] USING (R)-2-AMINO-3-PH[…]” (AXSOME THERAPEUTICS, INC., priority 2021, published 2024).
# Details: prescribing information; or potentially higher; cited from earlier work
structure (smiles),measurement,value
"COC(=O)[C@H](c1ccccc1)[C@H]1CCCCN1 [Focalin, dexmethylphenidate]",increase in blood pressure,2-4 mm Hg
